Experimental data: paper doi:10.1101/2024.02.28.577416v1 (biorxiv, 2024)
Positions count from the first letter of the chain named.

Assays:
SCO4122 [1] = biological target: T1, SCO4122 (Streptomyces coelicolor, UniProt Q9KYE8); assay: SPR; assay type: binding
T1 sequence (Q9KYE8 1-182): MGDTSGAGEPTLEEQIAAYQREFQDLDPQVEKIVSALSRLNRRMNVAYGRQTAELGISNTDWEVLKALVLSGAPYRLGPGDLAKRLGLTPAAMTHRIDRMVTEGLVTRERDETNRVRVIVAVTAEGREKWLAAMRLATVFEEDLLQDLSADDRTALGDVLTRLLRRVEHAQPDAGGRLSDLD

SCO4122 [2] = biological target: T2, SCO4122 (Streptomyces coelicolor, UniProt Q9KYE8, M93L); assay: SPR; assay type: binding
T2 sequence (Q9KYE8 1-182 M93L): T1 sequence (Q9KYE8 1-182) with M93L

SMILES	Kd (SCO4122 [1])	Kd (SCO4122 [2])
CC[n+]1c(-c2ccccc2)c2cc(N)ccc2c2ccc(N)cc21 [EtBr]	1.39 µM	–
O=C(N[C@H](CO)[C@H](O)c1ccc([N+](=O)[O-])cc1)C(Cl)Cl [chloramphenicol]	2000 µM	–
O=C(O)c1cn(C2CC2)c2cc(N3CCNCC3)c(F)cc2c1=O [ciprofloxacin]	31 µM	–
[H]/N=C(/N)N[C@H]1[C@H](O)[C@@H](O)[C@H](O[C@@H]2O[C@@H](C)[C@](O)(C=O)[C@H]2O[C@@H]2O[C@@H](CO)[C@H](O)[C@@H](O)[C@@H]2NC)[C@@H](N/C(N)=N\[H])[C@@H]1O [streptomycin]	0.73 µM	53.9 µM
CN(C)[C@@H]1C(=O)C(C(N)=O)=C(O)[C@@]2(O)C(=O)C3=C(O)c4c(O)cccc4[C@@](C)(O)[C@H]3C[C@@H]12 [tetracycline]	2.68 µM	2.43 µM
